Data set [1] deals with HepG2 cells stably transfected with the PAI-1 promoter linked to a luciferase (firefly) reporter gene, exposed to TGF-β. As to the kind of experiment: Assay 1 (Cellular Transcriptional Assay): TGF-β induced PAI-1 promoter luciferase reporter. The note with it: for IC50: Homo sapiens, HepG2, read-out: TGF-β cellular activity (IC50). Background: In a reporter assay the amount or activity of a reporter protein is the signal.
Experimental: The assay was performed in HepG2 cells stably transfected with the PAI-1 promoter (known to be a strong TGF-β responsive promoter) linked to a luciferase (firefly) reporter gene. The compounds were selected on their ability to inhibit luciferase activity in cells exposed to TGF-β. In addition, cells were transfected with a second luciferase (Renilla) gene which was not driven by a TGF-β responsive promoter and was used as a toxicity control.
96 well microplates were seeded, using a multidrop apparatus, with the stably transfected cell line at a concentration of 35000 cells per well in 200 μl of serum-containing medium. These plates were placed, in a cell incubator.
18 to 24 hours later (Day 2), cell-incubation procedure was launched: Cells were incubated with TGF-β and a candidate compound at concentrations in the range 50 nM to 10 μM (final concentration of DMSO 1%). The final concentration of TGF-β (rhTGFβ-1) used in the test was 1 ng/mL. […] The final volume of the test reaction was 150 μl. Each well contained only one candidate compound and its effect on the PAI-1 promoter was monitored.
Columns 11 and 12 were employed as controls. Column 11 contained 8 wells in which the cells were incubated in the presence of TGF-β, without a candidate compound. Column 11 was used to determine the ‘reference TGF-β induced firefly luciferase value’ against which values measured in the test wells (to quantify inhibitory activity) were compared. In wells A12 to D12, cells were grown in medium without TGF-β. […]
12 to 18 hours later (day 3), the luciferase quantification procedure was launched. […] Following agitation (15 to 30 mins), luciferase activities of the plates were read in a dual-injector luminometer (BMG lumistar). For this purpose, 50 μl of luciferase assay reagent and 50 μl of ‘Stop & Glo’ buffer were injected sequentially to quantify the activities of both luciferases. […] For each of the compounds tested, a concentration response curve was constructed from which an IC50 value was determined graphically.

Data set [2] has as its target T1, recombinant GST-ALK5 (residues 198-503) (Homo sapiens, UniProt P36897).
T1 construct: assays using recombinant GST-ALK5 (residues 198-503); GST (N)
T1 sequence (P36897 198-503): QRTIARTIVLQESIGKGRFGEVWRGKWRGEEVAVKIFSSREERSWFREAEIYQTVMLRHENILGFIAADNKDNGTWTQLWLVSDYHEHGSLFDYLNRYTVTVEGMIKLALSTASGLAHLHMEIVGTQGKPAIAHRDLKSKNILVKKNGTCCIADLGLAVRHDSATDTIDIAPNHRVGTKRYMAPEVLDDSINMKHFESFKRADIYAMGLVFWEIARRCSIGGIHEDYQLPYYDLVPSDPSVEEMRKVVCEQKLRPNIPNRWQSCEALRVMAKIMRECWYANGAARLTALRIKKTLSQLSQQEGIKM
Briefly: Assay 2 (Alk5 Fluorescence Polarization Assay). The format is binding. To be noted: rhodamine green-labelled ligand 1 nM, ALK5 10 nM, read-out: ALK5 receptor modulator activity (IC50). The procedure: Assay 2 (Alk5 Fluorescence Polarization Assay)
Kinase inhibitor compounds conjugated to fluorophores, can be used as fluorescent ligands to monitor ATP competitive binding of other compounds to a given kinase. The increase in depolarization of plane polarized light, caused by release of the bound ligand into solution, is measured as a polarization/anisotropy value. This protocol details the use of a rhodamine green-labelled ligand for assays using recombinant GST-ALK5 (residues 198-503).
Assay buffer components: 62.5 mM Hepes pH 7.5 (Sigma H-4034), 1 mM DTT (Sigma D-0632), 12.5 mM MgCl2 (Sigma M-9272), 1.25 mM CHAPS (Sigma C-3023). […]
ALK5 was added to assay buffer containing the above components and 1 nM of the rhodamine green-labelled ligand so that the final ALK5 concentration was 10 nM based on active site titration of the enzyme. […] The plates were read immediately on a UL Acquest fluorescence reader (Molecular Devices, serial number AQ1048) with excitation, emission, and dichroic filters of 485 nm, 530 nm, and 505 nm, respectively. The fluorescence polarization for each well was calculated by the Acquest reader and then imported into curve fitting software for construction of concentration response curves. The normalized response was determined relative to the high controls (1 μl DMSO in column 12, rows […]) and the low controls (1 μl of control compound in column 12, rows E-H). […]
Background: Fluorescence polarisation rises when a labelled molecule tumbles more slowly, as on binding a larger partner.

The structures appear in SMILES notation.

With `O=C1C=CCC1` [CPO, Cyclopentenone, reference compound], the “firefly and renilla luciferase activities, relative to TGF-β only wells” value in data set [1] (500 μM, in the presence of TGF-β, toxicity control) is “around 50%”.
Regarding `Cc1cccc(-c2nc(N)sc2-c2ccc3ncn(C)c3c2)n1` [Example 1, 5-(1-methyl-benzimidazol-6-yl)-4-(6-methylpyridin-2-yl)-1,3-thiazol-2-amine], the melting point fell in the range of 244 to 246 °C. In addition, the IC50 in data set [2] is 16 nM. Moreover, the IC50 in data set [1] is 11 nM.
On to `Cc1cccc(-c2sc(N)nc2-c2ccc3ncoc3c2)n1` [Example 2, 4-(benzoxazol-6-yl)-5-(6-methyl-pyridin-2-yl)-1,3-thiazol-2-amine], for which the melting point lay in the range of 188 to 190 °C.
Still for that read-out and setting: next, `CCn1cnc2ccc(-c3sc(N)nc3-c3cccc(C)n3)cc21` [Example 3, 5-(1-ethyl-benzimidazol-6-yl)-4-(6-methylpyridin-2-yl)-1,3-thiazol-2-amine]: 218 to 220 °C; `COCCn1cnc2ccc(-c3sc(N)nc3-c3cccc(C)n3)cc21` [Example 4, 5-(1-(2-methoxyethyl)-benzimidazol-6-yl)-4-(6-methylpyridin-2-yl)-1,3-thiazol-2-amine]: 200 to 202 °C.
The molecule `Cc1cccc(-c2nc(N)sc2-c2ccc3c(c2)N(C)C(=O)CO3)n1` [Example 5, 5-[4-methyl-4H-benzo[1,4]oxazin-3-one-6-yl]-4-(6-methylpyridin-2-yl)-1,3-thiazol-2-amine] showed a melting point of 240 to 242 °C.
In turn, `CCN1C(=O)COc2ccc(-c3sc(N)nc3-c3cccc(C)n3)cc21` [Example 6, 5-[4-ethyl-4H-benzo[1,4]oxazin-3-one-6-yl]-4-(6-methylpyridin-2-yl)-1,3-thiazol-2-amine] gave a melting point of 228 to 230 °C. For the same molecule, the concentration for half-maximal inhibition (IC50) in data set [2] worked out at 27 nM. Moreover, the concentration for half-maximal inhibition (IC50) in data set [1] worked out at 104 nM.
Regarding `Cc1cccc(-c2sc(N)nc2-c2ccc3c(c2)OCO3)n1` [Example 7, 4-(Benzo[1,3]dioxol-5-yl)-5-(6-methylpyridin-2-yl)-1,3-thiazol-2-amine], the melting point lay in the range of 170 to 172 °C.
Same read-out and setting: to `Nc1nc(-c2ccc3c(c2)OCCO3)c(-c2ccccn2)s1` [Example 8, 4-(Benzodioxan-6-yl)-5-(Pyridin-2-yl)-1,3-thiazol-2-amine] belongs 214 °C.
The molecule `Nc1nc(-c2ccc3ncccc3c2)c(-c2ccccn2)s1` [Example 9, 4-(Quinolin-6-yl)-5-(pyridin-2-yl)-1,3-thiazol-2-amine] gave a melting point of 226 °C.

As usually defined, the IC50 is the concentration that gives 50% inhibition. As a reminder, the melting point is the temperature of the solid-liquid transition.

Source of the values: US20060247233A1, “Thiazoles inhibitors of the alk-5 receptor” (priority 2003, published 2006).
